Patent US5428182A, “Bile acid derivatives, process for their preparation and use of these compounds as pharmaceuticals” (Hoechst Aktiengesellschaft, priority 1992, dated 1995)

Molecular target: T1, Na^+ -dependent bile acid transport system (Oryctolagus cuniculus, UniProt Q28727)
T1 construct: Brush border membrane vesicles from the intestinal cells of the small intestine were prepared by the so-called Mg^2+ precipitation method; from tissue; host or cells: terminal ileum (terminal 7/10 of small intestine) of male New Zealand rabbits, brush border membrane vesicles
T1 sequence (Q28727 1-347): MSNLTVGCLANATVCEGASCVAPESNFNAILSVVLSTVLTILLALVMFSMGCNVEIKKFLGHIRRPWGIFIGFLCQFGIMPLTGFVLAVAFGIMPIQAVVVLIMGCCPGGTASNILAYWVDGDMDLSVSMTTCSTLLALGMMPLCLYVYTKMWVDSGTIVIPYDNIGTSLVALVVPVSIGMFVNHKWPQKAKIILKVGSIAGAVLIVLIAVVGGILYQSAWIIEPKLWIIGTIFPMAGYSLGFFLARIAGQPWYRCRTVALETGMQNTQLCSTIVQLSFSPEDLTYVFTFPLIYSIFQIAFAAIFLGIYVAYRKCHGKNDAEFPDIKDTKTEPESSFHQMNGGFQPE
Assay: inhibition of Na+-dependent [3H]-taurocholate absorption in brush border membrane vesicles of rabbit ileum (membrane filtration technique)
Format: biochemical
Details: 50 μM taurocholate, customarily 1 minute, pH 7.4
Procedure: The biological testing of the compounds according to the invention was carried out by determining the inhibition of [^3 H]-taurocholate absorption in brush border membrane vesicles of the rabbit ileum. The inhibition test was carried out as follows:
Brush border membrane vesicles from the intestinal cells of the small intestine were prepared by the so-called Mg^2+ precipitation method. Male New Zealand rabbits (2 to 2.5 kg body weight) were sacrificed by intravenous injection of 0.5 ml of an aqueous solution of 2.5 mg of tetracaine HCl, 100 T 61® and 25 mg of mebezonium iodide. The small intestine was removed and rinsed with ice-cold physiological saline solution. The terminal 7/10 of the small intestine (measured in the oral-rectal direction, i.e. the terminal ileum, which contains the active Na^+ -dependent bile acid transport system) were used for the preparation of the brush border membrane vesicles. The intestines were frozen under nitrogen at -80° C. in plastic bags. For the preparation of the membrane vesicles, the frozen intestines were thawed at 30° C. in a water bath. The mucosa was scraped off and suspended in 60 ml of ice-cold 12 mM tris/HCl buffer (pH 7.1)/300 mM mannitol, 5 mM EGTA/ 10 mg/l of phenylmethylsulfonyl fluoride/l mg/l of trypsin inhibitor from soybeans (32 U/mg)/0.5 mg/l of trypsin inhibitor from bovine lung (193 U/mg)/5 mg/l of bacitracin. After dilution to 300 ml with ice-cold distilled water, the suspension was homogenized using an Ultraturrax (18-rod, IKAWerk Staufen, FRG) for 3 minutes at 75% maximum power with ice-cooling. After addition of 3 ml of 1M MgCl2 solution (final concentration 10 mM), the homogenate was allowed to stand at 0° C. for exactly 1 minute. As a result of addition of Mg^2+, the cell membranes aggregate and precipitate with the exception of the brush border membranes. After centrifugation at 3000×g for 15 minutes (5000 rpm, SS-34 rotor), the precipitate is discarded and the supernatant which contains the brush border membranes is centrifuged at […] for 30 minutes (15,000 rpm, SS-34 rotor). The supernatant was discarded and the precipitate was rehomogenized in 60 ml of 12 mM tris/HCl buffer (pH 7.1)/60 mM mannitol/5 mM EGTA using a Potter Elvejhem homogenizer (Braun Melsungen, 900 rpm, 10 strokes). After addition of 0.1 ml of 1M MgCl2 solution and an incubation time of 15 minutes at 0° C., centrifugation was once more carried out at 3000×g for 15 minutes. The supernatant was then centrifuged again at 46,000×g (15,000 rpm, SS-34 rotor) for 30 minutes. The precipitate was taken up in 30 ml of 10 mM tris/hepes buffer (pH 7.4)/300 mM mannitol and homogeneously resuspended at 1000 rpm by 20 strokes in a Potter Elvejhem homogenizer. After centrifugation at 48,000×g (20,000 rpm, SS-34 rotor) for 30 minutes, the precipitate was taken up in 0.5 to 2 ml of tris/HEPES buffer (pH 7.4)/280mM mannitol (final concentration 20 mg/ml) and resuspended with the aid of a tuberculin syringe having a 27 gauge needle. The vesicles were either used immediately after preparation for transport investigations or stored in liquid nitrogen at -196° C. in 4 mg portions.
The absorption of substrates in the brush border membrane vesicles described above was determined by means of the so-called membrane filtration technique. 10 μl of the vesicle suspension (100 μg of protein) were pipetted as drops onto the wall of a polystyrene incubation tube (11×70 mm) which contained the incubation medium with the appropriate ligands (90 μl). The incubation medium contained 0.75 μl=0.75 μCi of [^3 H(G)]-taurocholate (specific activity: 2.1 Ci/mMol)/0.5 μl of 10 mM taurocholate/8.75 μl of sodium transport buffer (10 mM tris/HEPES (pH 7.4)/100 mM mannitol/100 mM NaCl) (Na-T-B) or 8.75 μl of potassium transport buffer (10 mM tris/hepes (pH 7.4)/100 mM mannitol/100 mM KCl) (K-T-B) and 80 μl of the inhibitor solution concerned, depending on the experiment, dissolved in Na-T buffer or K-T buffer. […]

What does the source list for `CC(CCC(=O)O)C1CCC2C3C(O)CC4CC(OCCNC(=O)C5C(C(=O)NCCOC6CCC7(C)C(C6)CC(O)C6C7CC(O)C7(C)C(C(C)CCC(=O)O)CCC67)C(C(=O)NCCOC6CCC7(C)C(C6)CC(O)C6C7CC(O)C7(C)C(C(C)CCC(=O)O)CCC67)C5C(=O)NCCOC5CCC6(C)C(C5)CC(O)C5C6CC(O)C6(C)C(C(C)CCC(=O)O)CCC56)CCC4(C)C3CC(O)C12C` (centres unmarked) [Example 47]?
IC50Na (TCDC) / IC50Na (Substance) (quotient of IC50Na of the standard TCDC and of the substance, Na+-dependent transport (difference Na-T-B minus K-T-B)): 0.23; IC50 (TCDC) / IC50 (Substance) (quotient of IC50 of the standard taurochenodeoxycholate (TCDC) and of the substance): 0.24
